Experimental data as given in patent publication US9045491B2, “Thienyl [3,2-D] pyrimidin-4-one compounds, preparation method, pharmaceutical compositions and use thereof” (SHANGHAI INSTITUTE OF MATERIA MEDICA, CHINESE ACADEMY OF …, priority 2011, dated 2015).

How the values were obtained:
Assay type in all cases: biochemical
[1] = target: dipeptidyl peptidase 7 (DPP 7) (Homo sapiens, UniProt Q9UHL4); assay: DPP 7 activity screening; details: N.I. = No Inhibition
Outline: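 Sample dissolved in DMSO, final DMSO kept at a level not affecting activity; tested at a single concentration from preliminary screening (e.g. 20 μg/mL). Dose-response data fitted to sigmoidal variable-slope model with bottom and top fixed at 0 and 100.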

Human DPP 9 = target: T1, Human DPP 9 (Homo sapiens, UniProt Q86TI2); assay: DPP 9 activity screening (Ala-Pro-AMC fluorescence); details: N.I. = No Inhibition
T1 construct: made in house; host or cells: insect cells, baculovirus Bac-to-Bac
Outline: (§1)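 Insect-cell baculovirus-expressed human enzymes hydrolyse Ala-Pro-AMC; AMC release monitored kinetically as fluorescence rate (ex 355/em 460 nm). Primary screen at a single concentration (e.g. 20 μg/mL); dose–response fitted to variable-slope sigmoid with bottom/top fixed at 0 and 100.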

FAP = target: T2, FAP (Homo sapiens, UniProt Q12884); assay: FAP inhibition (Table 1); details: N.I. = No Inhibition
T2 sequence (Q12884 1-760): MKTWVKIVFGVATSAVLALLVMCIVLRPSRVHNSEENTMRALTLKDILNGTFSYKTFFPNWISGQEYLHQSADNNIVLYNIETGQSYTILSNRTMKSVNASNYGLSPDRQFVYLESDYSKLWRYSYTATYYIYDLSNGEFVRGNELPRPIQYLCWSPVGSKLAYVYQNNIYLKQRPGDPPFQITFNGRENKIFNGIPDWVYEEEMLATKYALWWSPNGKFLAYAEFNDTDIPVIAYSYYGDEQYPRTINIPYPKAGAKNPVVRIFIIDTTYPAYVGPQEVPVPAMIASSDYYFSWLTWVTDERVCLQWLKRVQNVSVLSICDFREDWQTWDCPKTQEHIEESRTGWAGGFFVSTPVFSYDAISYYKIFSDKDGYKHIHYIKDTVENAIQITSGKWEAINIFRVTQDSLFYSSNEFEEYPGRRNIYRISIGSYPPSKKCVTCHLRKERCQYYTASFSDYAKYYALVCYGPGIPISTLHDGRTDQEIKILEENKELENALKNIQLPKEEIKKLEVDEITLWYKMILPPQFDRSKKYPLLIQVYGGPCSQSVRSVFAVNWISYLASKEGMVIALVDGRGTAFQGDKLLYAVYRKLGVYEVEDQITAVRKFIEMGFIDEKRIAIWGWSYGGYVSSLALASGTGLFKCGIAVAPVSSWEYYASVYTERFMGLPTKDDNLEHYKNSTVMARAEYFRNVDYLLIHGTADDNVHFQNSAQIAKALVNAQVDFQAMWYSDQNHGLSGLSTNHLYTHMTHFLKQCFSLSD

human DPP 8 = target: T3, human DPP 8 (Homo sapiens, UniProt Q6V1X1); assay: DPP 8 activity screening (Ala-Pro-AMC fluorescence); details: N.I. = No Inhibition
T3 construct: made in house; host or cells: insect cells, baculovirus Bac-to-Bac
Outline: as §1

human DPP IV = target: T4, human DPP IV (Homo sapiens, UniProt P27487); assay: DPP IV activity screening (Ala-Pro-AMC fluorescence)
T4 construct: extracellular fragment of protease DPP IV (aa29-766); made in house; host or cells: baculovirus expression system Bac-to-Bac
Outline: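 DPP IV activity is taken as the linear rate of fluorescence change at 460 nm. Samples are dissolved in DMSO and screened at a single concentration (e.g. 20 μg/mL). Dose-response data are fit to a variable-slope sigmoidal model with bottom and top fixed at 0 and 100.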

T4 sequence (P27487 29-766): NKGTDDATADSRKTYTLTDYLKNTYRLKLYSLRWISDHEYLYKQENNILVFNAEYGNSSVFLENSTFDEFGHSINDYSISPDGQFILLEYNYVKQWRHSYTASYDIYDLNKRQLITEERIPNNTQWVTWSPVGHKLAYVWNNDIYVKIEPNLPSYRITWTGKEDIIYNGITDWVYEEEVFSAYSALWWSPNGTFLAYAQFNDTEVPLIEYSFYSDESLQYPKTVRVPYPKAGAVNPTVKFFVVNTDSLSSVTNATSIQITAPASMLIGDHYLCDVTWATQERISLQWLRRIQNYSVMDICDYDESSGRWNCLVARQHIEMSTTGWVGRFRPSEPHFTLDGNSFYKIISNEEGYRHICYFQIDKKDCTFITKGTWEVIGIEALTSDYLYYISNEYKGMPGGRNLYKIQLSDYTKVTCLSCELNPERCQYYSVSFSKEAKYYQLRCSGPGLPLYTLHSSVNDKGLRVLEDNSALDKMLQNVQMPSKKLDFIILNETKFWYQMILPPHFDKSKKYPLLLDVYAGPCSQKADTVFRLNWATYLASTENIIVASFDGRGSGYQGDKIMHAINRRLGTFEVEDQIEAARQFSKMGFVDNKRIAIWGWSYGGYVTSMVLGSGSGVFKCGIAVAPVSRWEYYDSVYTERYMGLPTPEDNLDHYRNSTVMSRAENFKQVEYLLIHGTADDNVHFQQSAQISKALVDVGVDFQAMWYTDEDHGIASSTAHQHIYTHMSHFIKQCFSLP
T1 sequence (Q86TI2 whole entry): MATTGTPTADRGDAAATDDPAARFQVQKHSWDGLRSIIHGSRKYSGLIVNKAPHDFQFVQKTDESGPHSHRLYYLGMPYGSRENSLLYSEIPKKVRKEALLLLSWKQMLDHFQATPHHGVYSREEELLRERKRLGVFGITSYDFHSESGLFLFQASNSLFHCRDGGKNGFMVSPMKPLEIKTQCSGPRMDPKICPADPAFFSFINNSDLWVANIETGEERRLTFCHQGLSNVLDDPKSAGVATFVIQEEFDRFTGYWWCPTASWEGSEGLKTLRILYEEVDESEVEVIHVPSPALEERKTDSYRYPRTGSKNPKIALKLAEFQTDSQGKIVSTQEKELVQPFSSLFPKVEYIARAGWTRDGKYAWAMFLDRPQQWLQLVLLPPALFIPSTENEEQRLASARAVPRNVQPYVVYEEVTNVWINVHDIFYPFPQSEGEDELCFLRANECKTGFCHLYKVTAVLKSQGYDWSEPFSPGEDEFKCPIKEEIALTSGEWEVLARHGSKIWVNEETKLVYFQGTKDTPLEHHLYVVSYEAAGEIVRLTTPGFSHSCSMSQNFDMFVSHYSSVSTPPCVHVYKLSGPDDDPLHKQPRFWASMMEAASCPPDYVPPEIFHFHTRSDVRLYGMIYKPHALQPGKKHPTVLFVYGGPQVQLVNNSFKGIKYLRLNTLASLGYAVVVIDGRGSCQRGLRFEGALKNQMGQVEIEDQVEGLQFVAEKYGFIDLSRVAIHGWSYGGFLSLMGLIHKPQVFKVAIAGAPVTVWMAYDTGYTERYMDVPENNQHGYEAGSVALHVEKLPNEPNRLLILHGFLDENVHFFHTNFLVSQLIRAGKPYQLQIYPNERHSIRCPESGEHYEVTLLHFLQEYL
T3 sequence (Q6V1X1 whole entry): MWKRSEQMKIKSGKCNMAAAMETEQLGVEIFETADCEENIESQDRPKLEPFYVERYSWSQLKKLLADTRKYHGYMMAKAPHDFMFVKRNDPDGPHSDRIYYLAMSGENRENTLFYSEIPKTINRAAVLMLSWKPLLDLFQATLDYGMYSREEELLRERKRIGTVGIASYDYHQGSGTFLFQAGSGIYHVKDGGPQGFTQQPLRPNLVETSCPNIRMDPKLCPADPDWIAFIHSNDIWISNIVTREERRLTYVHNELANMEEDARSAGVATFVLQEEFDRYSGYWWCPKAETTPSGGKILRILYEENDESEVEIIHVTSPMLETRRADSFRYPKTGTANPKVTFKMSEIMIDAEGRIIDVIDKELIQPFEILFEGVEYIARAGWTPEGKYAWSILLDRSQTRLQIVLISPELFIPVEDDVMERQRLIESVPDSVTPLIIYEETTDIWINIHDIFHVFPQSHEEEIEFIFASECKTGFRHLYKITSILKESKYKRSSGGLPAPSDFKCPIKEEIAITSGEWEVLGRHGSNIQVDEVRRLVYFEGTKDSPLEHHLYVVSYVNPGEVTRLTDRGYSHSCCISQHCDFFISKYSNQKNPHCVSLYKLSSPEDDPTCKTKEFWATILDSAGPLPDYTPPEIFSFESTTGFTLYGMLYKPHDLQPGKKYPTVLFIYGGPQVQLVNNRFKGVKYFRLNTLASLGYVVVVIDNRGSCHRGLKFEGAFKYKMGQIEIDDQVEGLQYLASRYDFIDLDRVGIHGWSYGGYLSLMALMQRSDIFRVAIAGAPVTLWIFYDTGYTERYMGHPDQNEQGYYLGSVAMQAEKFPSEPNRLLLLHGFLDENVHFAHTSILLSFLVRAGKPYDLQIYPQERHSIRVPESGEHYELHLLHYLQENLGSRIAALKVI

SMILES	DPP 7 IC50 [1]	DPP 9 IC50 (Human DPP 9)	FAP IC50 (FAP)	DPP 8 IC50 (human DPP 8)	IC50 (human DPP IV) [nM]	IC50 (Human DPP 9) [µM]	IC50 (FAP) [µM]	IC50 [1] [µM]	IC50 (human DPP 8) [µM]
N#Cc1ccccc1Cn1c(N2CCC[C@@H](N)C2)nc2c(C(=O)N3CCOCC3)csc2c1=O [Compound 69, (R)-2-((2-(3-aminopiperidin-1-yl)-7-(morpholine-4-carbonyl)-4-oxothieno-[3,2-d]pyrimidin-3(4H)-yl)methyl)-benzonitrile]	N.I.	N.I.	N.I.	N.I.	32.1	–	–	–	–
N#Cc1ccccc1Cn1c(N2CCC[C@@H](N)C2)nc2c(CN3CCOCC3)csc2c1=O [Compound 55, (R)-2-((2-(3-aminopiperidin-1-yl)-7-(morpholinomethyl)-4-oxothieno-[3,2-d]pyrimidin-3(4H)-yl)methyl)-benzonitrile]	N.I.	N.I.	N.I.	N.I.	17.8	–	–	–	–
N#Cc1ccccc1Cn1c(N2CCC[C@@H](N)C2)nc2cc(C(=O)NCc3ccc(C(F)(F)F)cc3)sc2c1=O [Compound 103, (R)-2-(3-aminopiperidin-1-yl)-3-(2-cyanobenzyl)-4-oxo-N-(4-(trifluoromethyl)benzyl)-3,4-dihydrothieno[3,2-d]pyrimidine-6-carboxamide]	N.I.	–	–	N.I.	53.8	86.8	145	–	–
N#Cc1ccccc1Cn1c(N2CCC[C@@H](N)C2)nc2c(C#N)csc2c1=O [Compound 83, (R)-2-(3-aminopiperidin-1-yl)-3-(2-cyanobenzyl)-4-oxo-3,4-dihydrothieno-[3,2-d]pyrimidine-7-carbonitrile]	–	N.I.	–	–	16.1	–	160	38.2	317
CN(C)C(=O)c1csc2c(=O)n(Cc3ccccc3C#N)c(N3CCC[C@@H](N)C3)nc12 [Compound 63, (R)-2-(3-aminopiperidin-1-yl)-3-(2-cyanobenzyl)-N,N-dimethyl-4-oxo-3,4-dihydrothieno[3,2-d]pyrimidine-7-carboxamide]	N.I.	–	–	–	27.5	189	170	–	47.9
CCOC(=O)CNC(=O)c1csc2c(=O)n(Cc3ccccc3C#N)c(N3CCC[C@@H](N)C3)nc12 [Compound 58, (R)-ethyl 2-(2-(3-aminopiperidin-1-yl)-3-(2-cyanobenzyl)-4-oxo-3,4-dihydrothieno[3,2-d]pyrimidine-7-carboxamido)acetate]	N.I.	N.I.	N.I.	–	8.72	–	–	–	14.3
N#Cc1ccccc1Cn1c(N2CCC[C@@H](N)C2)nc2c(C(N)=O)csc2c1=O [Compound 45, (R)-2-(3-aminopiperidin-1-yl)-3-(2-cyanobenzyl)-4-oxo-3,4-dihydrothieno-[3,2-d]pyrimidine-7-carboxamide]	N.I.	N.I.	N.I.	N.I.	3.57	–	–	–	–
COC(=O)[C@@H](NC(=O)c1csc2c(=O)n(Cc3ccccc3C#N)c(N3CCC[C@@H](N)C3)nc12)C(C)C [Compound 59, (S)-methyl 2-(2-((R)-3-aminopiperidin-1-yl)-3-(2-cyanobenzyl)-4-oxo-3,4-dihydrothieno[3,2-d]pyrimidine-7-carboxamido)-3-methylbutanoate]	N.I.	–	–	–	26.6	187	49.5	–	35
CC(C)CCNC(=O)c1csc2c(=O)n(Cc3ccccc3C#N)c(N3CCC[C@@H](N)C3)nc12 [Compound 78, (R)-2-(3-aminopiperidin-1-yl)-3-(2-cyanobenzyl)-N-isopentyl-4-oxo-3,4-dihydrothieno[3,2-d]pyrimidine-7-carboxamlde]	–	–	–	–	28.8	407	64.3	27.1	60.4
